Test results as given in patent EP4389749A1, “SUBSTITUTED 3,7-DIHYDRO-1H-PURINE-2,6-DIONES AND USE THEREOF” (invIOs GmbH, priority 2022, dated 2024).

How the values were obtained:
CD4+ T-cells = test: Immunostimulation assay with anti-CD3/28 stimulated T-cells, CD69 expression by flow cytometry; assay type: cell-based, human; settings: T-cell; purified human CD4+ and CD8+ T-cells, 1 µg/ml anti-CD3, 1 µg/ml anti-CD28, 16 hours, surface FACS; read-out: EC50 CD4+
Outline: (§1)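 Human CD4+/CD8+ T-cells purified from buffy-coat PBMCs were stimulated with 1 µg/ml anti-CD3 and 1 µg/ml anti-CD28 plus compound (0.001–30 µM) for 16 h at 37 °C. CD69 measured by flow cytometry; DMSO set minimal, CD3/28 Dynabeads maximal activation; EC50 by variable-slope fit.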

CD8+ T-cells = test: as above; assay type: cell-based, human; settings: T-cell; purified human CD4+ and CD8+ T-cells, 1 µg/ml anti-CD3, 1 µg/ml anti-CD28, 16 hours, surface FACS; read-out: EC50 CD8+
Outline: as §1

SMILES | EC50 (CD4+ T-cells) [nM] | EC50 (CD8+ T-cells) [nM]
Cn1c(-c2ccc(Oc3ccc(OC(F)F)cc3)cc2)nc2c1c(=O)[nH]c(=O)n2CC(O)C(F)(F)F (stereo not shown) [Compound 165, 8-(4-(4-(difluoromethoxy)phenoxy)phenyl)-7-methyl-3-(3,3,3-trifluoro-2-hydroxypropyl)-3,7-dihydro-1H-purine-2,6-dione] | 1000 to 5000 | 1000 to 5000
COc1cc(-c2nc3c(c(=O)[nH]c(=O)n3CC(O)CO)n2C)ccc1OCc1ccccc1 (stereo not shown) [Compound 55, 8-(4-(benzyloxy)-3-methoxyphenyl)-3-(2,3-dihydroxypropyl)-7-methyl-3,7-dihydro-1H-purine-2,6-dione] | 1000 to 5000 | 1000 to 5000
Cc1ccc(COc2ccc(-c3nc4c(c(=O)[nH]c(=O)n4CC(C)O)n3C)cc2OC(F)F)cc1 (stereo not shown) [Compound 76, 8-(3-(difluoromethoxy)-4-((4-methylbenzyl)oxy)phenyl)-3-(2-hydroxypropyl)-7-methyl-3,7-dihydro-1H-purine-2,6-dione] | < 100 | < 100
Cn1c(-c2ccc(OCc3ccccc3)c(OC(F)(F)F)c2)nc2c1c(=O)[nH]c(=O)n2CC(O)CF (stereo not shown) [Compound 117, 8-(4-(benzyloxy)-3-(trifluoromethoxy)phenyl)-3-(3-fluoro-2-hydroxypropyl)-7-methyl-3,7-dihydro-1H-purine-2,6-dione] | < 100 | < 100
COc1cc(-c2nc3c(c(=O)[nH]c(=O)n3CC(O)C(F)(F)F)n2C)ccc1OCc1ccccc1 (stereo not shown) [Compound 57, 8-(4-(benzyloxy)-3-methoxyphenyl)-7-methyl-3-(3,3,3-trifluoro-2-hydroxypropyl)-3,7-dihydro-1H-purine-2,6-dione] | 500 to 1000 | 1000 to 5000
Cc1ccc(COc2ccc(-c3nc4c(c(=O)[nH]c(=O)n4CC(O)C(F)F)n3C)cc2F)cc1 (stereo not shown) [Compound 80, 3-(3,3-difluoro-2-hydroxypropyl)-8-(3-fluoro-4-((4-methylbenzyl)oxy)phenyl)-7-methyl-3,7-dihydro-1H-purine-2,6-dione] | < 100 | < 100
COc1cc(-c2nc3c(c(=O)[nH]c(=O)n3CC(O)C(F)F)n2C)ccc1OCc1ccc(C)cc1 (stereo not shown) [Compound 19, 3-(3,3-difluoro-2-hydroxypropyl)-8-(3-methoxy-4-((4-methylbenzyl)oxy)phenyl)-7-methyl-3,7-dihydro-1H-purine-2,6-dione] | 500 to 1000 | < 100
COc1cc(-c2nc3c(c(=O)[nH]c(=O)n3C[C@@H](C)O)n2C)ccc1OCc1ccccc1 [Compound 60, (R)-8-(4-(benzyloxy)-3-methoxyphenyl)-3-(2-hydroxypropyl)-7-methyl-3,7-dihydro-1H-purine-2,6-dione] | 1000 to 5000 | 1000 to 5000
COc1cc(-c2nc3c(c(=O)[nH]c(=O)n3CC(C)O)n2C)ccc1OCc1ccccc1 (stereo not shown) [Compound 16, 8-(4-(benzyloxy)-3-methoxyphenyl)-3-(2-hydroxypropyl)-7-methyl-3,7-dihydro-1H-purine-2,6-dione] | 500 to 1000 | 1000 to 5000
COc1cc(-c2nc3c(c(=O)[nH]c(=O)n3CC(C)CO)n2C)ccc1OCc1ccccc1 (stereo not shown) [Compound 56, 8-(4-(benzyloxy)-3-methoxyphenyl)-3-(3-hydroxy-2-methylpropyl)-7-methyl-3,7-dihydro-1H-purine-2,6-dione] | 100 to 500 | 100 to 500
Cn1c(-c2ccc(Oc3ccc(Cl)cc3)c(Cl)c2)nc2c1c(=O)[nH]c(=O)n2CC(O)CF (stereo not shown) [Compound 147, 8-(3-chloro-4-(4-chlorophenoxy)phenyl)-3-(3-fluoro-2-hydroxypropyl)-7-methyl-3,7-dihydro-1H-purine-2,6-dione] | < 100 | < 100
CC(O)Cn1c(=O)[nH]c(=O)c2c1nc(-c1ccc(Oc3ccccc3OC(F)(F)F)cc1)n2C (stereo not shown) [Compound 190, 3-(2-hydroxypropyl)-7-methyl-8-(4-(2-(trifluoromethoxy)phenoxy)phenyl)-3,7-dihydro-1H-purine-2,6-dione] | > 5000 | > 5000
CC(O)Cn1c(=O)[nH]c(=O)c2c1nc(-c1ccc(Oc3ccc(Cl)cc3)c(OC(F)F)c1)n2C (stereo not shown) [Compound 81, 8-(4-(4-chlorophenoxy)-3-(difluoromethoxy)phenyl)-3-(2-hydroxypropyl)-7-methyl-3,7-dihydro-1H-purine-2,6-dione] | 100 to 500 | < 100
CC(O)Cn1c(=O)[nH]c(=O)c2c1nc(-c1ccc(OCc3ccccc3)cc1)n2C (stereo not shown) [Compound 78, 8-(4-(benzyloxy)phenyl)-3-(2-hydroxypropyl)-7-methyl-3,7-dihydro-1H-purine-2,6-dione] | 500 to 1000 | 100 to 500
Cc1ccc(COc2ccc(-c3nc4c(c(=O)[nH]c(=O)n4CC(O)CF)n3C)cc2F)cc1 (stereo not shown) [Compound 96, 3-(3-fluoro-2-hydroxypropyl)-8-(3-fluoro-4-((4-methylbenzyl)oxy)phenyl)-7-methyl-3,7-dihydro-1H-purine-2,6-dione] | 100 to 500 | 100 to 500
Cn1c(-c2ccc(Oc3ccc(OC(F)(F)F)cc3F)c(Cl)c2)nc2c1c(=O)[nH]c(=O)n2CC(O)C(F)(F)F (stereo not shown) [Compound 163, 8-(3-chloro-4-(2-fluoro-4-(trifluoromethoxy)phenoxy)phenyl)-7-methyl-3-(3,3,3-trifluoro-2-hydroxypropyl)-3,7-dihydro-1H-purine-2,6-dione] | 100 to 500 | 100 to 500
CC(O)Cn1c(=O)[nH]c(=O)c2c1nc(-c1ccc(OCc3ccccc3)c(C(F)(F)F)c1)n2C (stereo not shown) [Compound 98, 8-(4-(benzyloxy)-3-(trifluoromethyl)phenyl)-3-(2-hydroxypropyl)-7-methyl-3,7-dihydro-1H-purine-2,6-dione] | 100 to 500 | 100 to 500
COc1cc(-c2nc3c(c(=O)[nH]c(=O)n3CC(C)O)n2C)ccc1OCc1ccc(F)cc1 (stereo not shown) [Compound 87, 8-(4-((4-fluorobenzyl)oxy)-3-methoxyphenyl)-3-(2-hydroxypropyl)-7-methyl-3,7-dihydro-1H-purine-2,6-dione] | 500 to 1000 | 100 to 500
Cn1c(-c2ccc(OCc3ccccc3)c(OC(F)(F)F)c2)nc2c1c(=O)[nH]c(=O)n2CC(O)C(F)(F)F (stereo not shown) [Compound 119, 8-(4-(benzyloxy)-3-(trifluoromethoxy)phenyl)-7-methyl-3-(3,3,3-trifluoro-2-hydroxypropyl)-3,7-dihydro-1H-purine-2,6-dione] | < 100 | < 100
CC(O)Cn1c(=O)[nH]c(=O)c2c1nc(-c1ccc(OCCc3ccccc3)c(F)c1)n2C (stereo not shown) [Compound 200, 8-(3-fluoro-4-phenethoxyphenyl)-3-(2-hydroxypropyl)-7-methyl-3,7-dihydro-1H-purine-2,6-dione] | 500 to 1000 | 100 to 500
CC(O)Cn1c(=O)[nH]c(=O)c2c1nc(-c1ccc(Oc3ccc(OC(F)(F)F)cc3)c(C(F)(F)F)c1)n2C (stereo not shown) [Compound 155, 3-(2-hydroxypropyl)-7-methyl-8-(4-(4-(trifluoromethoxy)phenoxy)-3-(trifluoromethyl)phenyl)-3,7-dihydro-1H-purine-2,6-dione] | 1000 to 5000 | 1000 to 5000
Cc1ccc(COc2ccc(-c3nc4c(c(=O)[nH]c(=O)n4CC(C)O)n3C)cc2)cc1 (stereo not shown) [Compound 77, 3-(2-hydroxypropyl)-7-methyl-8-(4-((4-methylbenzyl)oxy)phenyl)-3,7-dihydro-1H-purine-2,6-dione] | 500 to 1000 | 100 to 500
COc1cc(-c2nc3c(c(=O)[nH]c(=O)n3CC(C)O)n2C)ccc1OCc1ccc(C)cc1 (stereo not shown) [Compound 125, 3-(2-hydroxypropyl)-8-(3-methoxy-4-((4-methylbenzyl)oxy)phenyl)-7-methyl-3,7-dihydro-1H-purine-2,6-dione] | 100 to 500 | 100 to 500
CC(O)Cn1c(=O)[nH]c(=O)c2c1nc(-c1ccc(Oc3ccc(OC(F)F)cc3)c(Cl)c1)n2C (stereo not shown) [Compound 178, 8-(3-chloro-4-(4-(difluoromethoxy)phenoxy)phenyl)-3-(2-hydroxypropyl)-7-methyl-3,7-dihydro-1H-purine-2,6-dione] | 500 to 1000 | 500 to 1000
COc1ccc(COc2ccc(-c3nc4c(c(=O)[nH]c(=O)n4CC(C)O)n3C)cc2F)cc1 (stereo not shown) [Compound 114, 8-(3-fluoro-4-((4-methoxybenzyl)oxy)phenyl)-3-(2-hydroxypropyl)-7-methyl-3,7-dihydro-1H-purine-2,6-dione] | 1000 to 5000 | 1000 to 5000
Cn1c(-c2ccc(OCc3ccccc3)c(OC(F)(F)F)c2)nc2c1c(=O)[nH]c(=O)n2CC(CO)C(F)F (stereo not shown) [Compound 198, 8-(4-(benzyloxy)-3-(trifluoromethoxy)phenyl)-3-(3,3-difluoro-2-(hydroxymethyl)propyl)-7-methyl-3,7-dihydro-1H-purine-2,6-dione] | < 100 | 100 to 500
COc1cc(-c2nc3c(c(=O)[nH]c(=O)n3CC(O)CF)n2C)ccc1OCc1ccccc1 (stereo not shown) [Compound 58, 8-(4-(benzyloxy)-3-methoxyphenyl)-3-(3-fluoro-2-hydroxypropyl)-7-methyl-3,7-dihydro-1H-purine-2,6-dione] | 500 to 1000 | 100 to 500
CC(O)Cn1c(=O)[nH]c(=O)c2c1nc(-c1ccc(Oc3ccc(Cl)cc3)cc1)n2C (stereo not shown) [Compound 138, 8-(4-(4-chlorophenoxy)phenyl)-3-(2-hydroxypropyl)-7-methyl-3,7-dihydro-1H-purine-2,6-dione] | 1000 to 5000 | 1000 to 5000
COc1cccc(Oc2ccc(-c3nc4c(c(=O)[nH]c(=O)n4CC(C)O)n3C)cc2)c1 (stereo not shown) [Compound 182, 3-(2-hydroxypropyl)-8-(4-(3-methoxyphenoxy)phenyl)-7-methyl-3,7-dihydro-1H-purine-2,6-dione] | 1000 to 5000 | 1000 to 5000
